Results from PMC11784839, “Monoaminergic neurotransmitters are bimodal effectors of tau aggregation” (Science Advances, 2025).

Target: tau (Homo sapiens, UniProt P10636)
Assay: MCE Phenols Library screening, tau biosensor cell seeding assay (AvZ)
Assay type: cell-based
Settings: for Z repl 1 / Z Repl 2: Z score; for Z repl 1 / raw data 1: replicate 1; for Z Repl 2 / raw data 2: replicate 2; for AvZ (average z score of seeding, SDs from the mean level of seeding): 10 μM phenol in cell cultures, AD brain homogenate preincubated 16 hours, two biological replicates, positive = catalyzes seeding, negative = inhibits
[1] = average Z score of the two replicates, tau biosensor seeding, MCE Phenols Library screen
[2] = average Z score of the two replicates, MCE Phenols Library screen
[3] = average puncta of the two replicates
[4] = average Z score of two replicates, Phenols Library screen
[5] = average Z score of the two replicates, tau seeding

Sequence of tau (P10636 623-695 limits assumed): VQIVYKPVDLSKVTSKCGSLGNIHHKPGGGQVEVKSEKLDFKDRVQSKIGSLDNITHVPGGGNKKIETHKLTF

Compound | Z repl 1 | Z Repl 2 | av Z [1] | av puncta (average of raw data 1 and 2) | raw data 1 (puncta) | raw data 2 (puncta) | av Z [2] | av puncta [3] | raw data 1 (raw puncta) | raw data 2 (raw puncta) | av Z [4] | AvZ (average z score of seeding, SDs from the mean level of seeding) | av Z [5] | AvZ (average z score of seeding, SDs from the mean level of seeding) (listed as sinapine)
COc1ccc(-c2coc3cc(O[C@@H]4O[C@H](CO)[C@@H](O)[C@H](O)[C@H]4O)ccc3c2=O)cc1O [Calycosin-7-O-?-D-glucoside] | 0.722 | 1.127 | 0.924 | 29908.6 | 35020 | 24797.2 |  |  |  |  |  |  |  | 
O=c1c(O[C@@H]2O[C@H](CO)[C@H](O)[C@H](O)[C@H]2O)c(-c2ccc(O)c(O)c2)oc2cc(O)cc(O)c12 [Hyperoside] | -0.253 | -0.241 |  |  |  |  | -0.247 | 16752.5 | 23311.4 | 10193.6 |  |  |  | 
Oc1ccc([C@H]2Oc3cc(O)cc(O)c3C[C@H]2O)cc1 [(-)-Epiafzelechin] | -0.198 | 0.182 |  | 19340.4 | 23970.4 | 14710.3 |  |  |  |  | -0.008 |  |  | 
NCCc1ccc(O)cc1 [Tyramine] | -0.244 | 0.385 |  | 20147.8 | 23421.7 | 16873.8 |  |  |  |  |  | 0.07 |  | 
O=C(O[C@H]1[C@H](Oc2c(-c3ccc(O)c(O)c3)oc3cc(O)cc(O)c3c2=O)O[C@H](CO)[C@H](O)[C@@H]1O)c1cc(O)c(O)c(O)c1 [2""-O-Galloylhyperin] | -0.93 | -0.817 |  | 9615.07 | 15187.3 | 4042.85 | -0.873 |  |  |  |  |  |  | 
O=c1cc(-c2ccc(O)c(O)c2)oc2c([C@@H]3O[C@H](CO)[C@@H](O)[C@H](O)[C@H]3O)c(O)cc(O)c12 [Orientin] | 0.558 | -0.368 |  | 20945 | 33050.1 | 8839.87 |  |  |  |  | 0.095 |  |  | 
COc1ccc(O)cc1 [Mequinol] | 0.5 | 0.017 |  | 22646.3 | 32350 | 12942.5 |  |  |  |  |  | 0.258 |  | 
COc1cc(O)c(C(=O)/C=C/c2ccc(O)cc2)cc1CC=C(C)C [4'-O-Methylbavachalcone] | -0.312 | 0.23 |  | 18915.2 | 22607.8 | 15222.5 |  |  |  |  | -0.041 |  |  | 
COc1cc(/C=C/C(=O)O[C@H]2[C@H](O)[C@@H](CO)O[C@@]2(CO)O[C@H]2O[C@H](CO)[C@@H](O)[C@H](O)[C@H]2O)ccc1O [Sibiricose A5] | -0.765 | -0.196 |  |  | 17163.5 | 10668.8 | -0.481 | 13916.2 |  |  |  |  |  | 
Oc1cc(O)cc(-c2cc3ccc(O)cc3o2)c1 [Moracin M] | 0.06 | -0.745 |  |  |  |  | -0.343 | 15938.9 | 27063.9 | 4813.92 |  |  |  | 
O=c1c(O)c(-c2ccc(O[C@@H]3O[C@H](CO)[C@@H](O)[C@H](O)[C@H]3O)c(O)c2)oc2cc(O)cc(O)c12 [Spiraeoside] | -1.012 | -0.12 |  |  | 14202.4 | 11481.5 | -0.566 | 12842 |  |  |  |  |  | 
COc1cc2ccc(=O)oc2c(O)c1OC [Fraxidin] | 0.561 | -0.256 |  | 21554.2 | 33079.8 | 10028.5 |  |  |  |  |  |  | 0.152 | 
COc1cc(/C=C/c2ccc(O)c(O)c2)cc(OC)c1 [3'-Hydroxypterostilbene] | -0.14 | 0.484 |  | 21302.3 | 24671.3 | 17933.3 |  |  |  |  |  |  | 0.172 | 
Cc1cccc(O)c1O [3-Methylcatechol] | -0.458 | -0.383 |  |  |  |  |  | 14763.7 | 20851.2 | 8676.12 |  | -0.42 |  | 
O=C1C[C@@H](c2ccc(O)cc2)Oc2cc(O[C@@H]3O[C@H](CO)[C@@H](O)[C@H](O)[C@H]3O)cc(O)c21 [Prunin] | -0.134 | 0.469 |  | 21257.9 | 24743.3 | 17772.6 |  |  |  |  |  |  | 0.168 | 
Bavachinin | 0.618 | -0.383 |  | 21219.6 | 33763.9 | 8675.17 |  |  |  |  | 0.117 |  |  | 
COc1cc(O)c2c(=O)cc(-c3ccc(O)c(O)c3)oc2c1 [Hydroxygenkwanin] | -0.407 | -0.493 |  |  |  |  | -0.45 | 14482.9 | 21459.9 | 7505.79 |  |  |  | 

Compound | Z repl 1 | Z Repl 2 | av Z [1] | av puncta (average of raw data 1 and 2) | raw data 1 (puncta) | raw data 2 (puncta) | av Z [2] | av puncta [3] | raw data 1 (raw puncta) | raw data 2 (raw puncta) | av Z [4] | AvZ (average z score of seeding, SDs from the mean level of seeding) | av Z [5] | AvZ (average z score of seeding, SDs from the mean level of seeding) (listed as sinapine)
O=c1oc2c(O)c(O)cc3c(=O)oc4c(O)c(O)cc1c4c23 [Ellagic acid] | -1.043 | -0.067 |  |  | 13826.2 | 12045.1 | -0.555 | 12935.6 |  |  |  |  |  | 
COc1cc(/C=C/C(=O)OCC[N+](C)(C)C)cc(OC)c1O [Sinapine] | -0.962 | -0.305 |  |  | 14803.5 | 9509.32 |  | 12156.4 |  |  |  | -0.633 |  | −0.633
O=C1c2ccc(O)cc2OCC1c1ccc(O)cc1 (stereo not drawn) [Dihydrodaidzein] | -0.987 | -0.442 |  |  | 14500 | 8042.62 | -0.715 | 11271.3 |  |  |  |  |  | 
O=Cc1c[nH]c2cccc(O)c12 [4-Hydroxy-1H-indole-3-carbaldehyde] | 0.51 | -0.086 |  | 22163.8 | 32475.1 | 11852.6 |  |  |  |  |  | 0.212 |  | 
O=c1ccc2cc(O)ccc2o1 [6-Hydroxycoumarin] | -0.422 | 0.434 |  | 19344 | 21288.5 | 17399.5 |  |  |  |  | 0.006 |  |  | 
OCCc1ccc(O)cc1 [Tyrosol] | -0.193 | 0.294 |  | 19965.6 | 24027 | 15904.1 |  |  |  |  |  | 0.05 |  | 
COc1ccc(-c2oc3c(CC=C(C)C)c(O[C@@H]4O[C@H](CO)[C@@H](O)[C@H](O)[C@H]4O)cc(O)c3c(=O)c2O[C@@H]2O[C@@H](C)[C@H](O)[C@@H](O)[C@H]2O)cc1 [Icariin] | 0.381 | 0.569 |  | 24883.3 | 30921.9 | 18844.8 |  |  |  |  |  |  | 0.475 | 
O=c1c(O[C@@H]2O[C@H](CO[C@@H]3O[C@H](CO)[C@@H](O)[C@H](O)[C@H]3O)[C@@H](O)[C@H](O)[C@H]2O)c(-c2ccc(O)cc2)oc2cc(O)cc(O)c12 [Kaempferol 3-O-gentiobioside] | 0.421 | -0.356 |  | 20180.4 | 31398.7 | 8962.19 |  |  |  |  | 0.032 |  |  | 
COc1ccc(O)c(C(=O)O)c1 [5-Methoxysalicylic acid] | -0.389 | 0.66 |  | 20749.6 | 21680.5 | 19818.6 |  |  |  |  |  | 0.136 |  | 
C=C(C)[C@H](CC=C(C)C)Cc1c(O)cc(O)c2c1O[C@H](c1ccc(O)cc1O)CC2=O [Sophoraflavanone G] | -0.704 | -0.412 |  |  | 17897.8 | 8362.49 | -0.558 | 13130.1 |  |  |  |  |  | 
CCCCCCC/C=C/C(=O)CCc1ccc(O)c(OC)c1 [[8]-Shogaol] | -0.527 | -0.802 |  |  | 20022.1 | 4200.38 |  | 12111.2 |  |  |  | -0.665 |  | 
COc1cc(OC)c2c(=O)cc(-c3ccc(O)c(O)c3)oc2c1 [5,7-Dimethoxyluteolin] | 1.798 | 1.915 | 1.856 | 40573.2 | 47932.5 | 33213.9 |  |  |  |  |  |  |  | 
Cc1ccc(O)c(O)c1 [4-Methylcatechol] | -1.54 | -0.975 |  | 5109.52 | 7864.83 | 2354.22 |  |  |  |  |  | -1.257 |  | 
COc1cc(CO)ccc1O [Vanillyl alcohol] | 0.198 | -0.736 |  |  |  |  |  | 16813.8 | 28727.3 | 4900.36 |  | -0.269 |  | 
CC(=O)O[C@H](CC=C(C)C)C1=CC(=O)c2c(O)ccc(O)c2C1=O [Acetylshikonin] | 0.563 | 1.037 | 0.8 | 28473.3 | 33102.4 | 23844.2 |  |  |  |  |  |  |  | 
CCCCC[C@H](O)CC(=O)CCc1ccc(O)c(OC)c1 [[6]-Gingerol] | 0.385 | 0.874 |  | 26534.4 | 30973.3 | 22095.4 |  |  |  |  |  |  |  | 
